Experimental data published in patent US20240300980A1, “HETEROCYCLIC COMPOUNDS AS KRAS INHIBITOR, AND PREPARATION THEREFOR AND USE THEREOF IN TREATMENT” (SHANGHAI KECHOW PHARMA, INC., priority 2021, published 2024).

System: AGS cells (KRAS^G12D)
Test: Detection of cell proliferation in vitro by MTT/MTS method (cell activity experiment)
Assay type: cell-based
Conditions: Homo sapiens, AGS, 72 h, AGS cells; MTT/MTS; 3 days of drug treatment; read-out: AGS IC50
Method in brief: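 After 3-day compound exposure (final DMSO 0.5%), viability of AGS (KRAS G12D) cells, plated 1000/well one day before dosing, was measured at 490 nm following 4 h MTT or MTS incubation. IC50 was fitted from dose–effect curves relative to DMSO-treated wells.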

Structure (SMILES) | IC50 [nM]
Oc1cc(O)c2c(C#Cc3ccc4c(N5C[C@H]6CC[C@@H](C5)N6)nc(OC[C@@]56CCCN5C[C@H](F)C6)nc4c3F)c(F)ccc2c1 [Example 366, 8-((4-((1R,5S)-3,8-diazabicyclo[3.2.1]octan-3-yl)-8-fluoro-2-(((2R,7aS)-2-fluorotetrahydro-1H-pyrrolizin-7a(5H)-yl)methoxy)quinazolin-7-yl)ethynyl)-7-fluoronaphthalene-1,3-diol] | 2100
C#Cc1cccc2cc(O)cc(-c3ccc4c(N5C[C@H]6CC[C@@H](C5)N6)nc(OC[C@@]56CCCN5C[C@H](F)C6)nc4c3F)c12 [Example 89, 4-(4-((1R,5S)-3,8-diazabicyclo[3.2.1]octan-3-yl)-8-fluoro-2-(((2R,7aS)-2-fluorotetrahydro-1H-pyrrolizin-7a(5H)-yl)methoxy)quinazolin-7-yl)-5-ethynylnaphthalen-2-ol] | 1.5
Oc1cc(-c2ncc3c(N4C[C@H]5CC[C@@H](C4)N5)nc(OC[C@@]45CCCN4C[C@H](F)C5)nc3c2F)c2c(c1)C1CC1C2 (stereo partly drawn) [Example 245, 5-(4-((1R,5S)-3,8-diazabicyclo[3.2.1]octan-3-yl)-8-fluoro-2-(((2R,7aS)-2-fluorotetrahydro-1H-pyrrolizin-7a(5H)-yl)methoxy)pyrido[4,3-d]pyrimidin-7-yl)-1,1a,6,6a-tetrahydrocyclopropa[a]inden-3-ol] | 25
C#Cc1cccc2cc(O)cc(-c3ncc4c(C5C[C@H]6CC[C@@H](C5)N6)nc(OC[C@@]56CCCN5C[C@H](F)C6)nc4c3F)c12 (stereo partly drawn) [Example 83, 4-(4-((1R,5S)-8-azabicyclo[3.2.1]octan-3-yl)-8-fluoro-2-(((2R,7aS)-2-fluorotetrahydro-1H-pyrrolizin-7a(5H)-yl)methoxy)pyrido [4,3-d]pyrimidin-7-yl)-5-ethynylnaphthalen-2-ol] | > 2500
CCC1CCc2cc(O)cc(-c3c(F)c4nc(OC[C@@]56CCCN5C[C@H](F)C6)nc(N5C[C@H]6CC[C@@H](C5)N6)c4c4cncn34)c21 (stereo partly drawn) [Example 418, 7-(1-((1R,5S)-3,8-diazabicyclo[3.2.1]octan-3-yl)-5-fluoro-3-(((2R,7aS)-2-fluorotetrahydro-1H-pyrrolizin-7a(5H)-yl)methoxy)imidazo[1′,5′:1,2]pyrido[4,3-d]pyrimidin-6-yl)-1-ethyl-2,3-dihydro-1H-inden-5-ol] | 75
[O-][S+]1C2CCC1CN(c1nc(OC[C@@]34CCCN3C[C@H](F)C4)nc3c(F)c(-c4cc(O)cc5ccc(F)c(F)c45)ccc13)C2 (stereo partly drawn) [Example 165, (1R,5S,8R)-3-(7-(7,8-difluoro-3-hydroxynaphthalen-1-yl)-8-fluoro-2-(((2R,7aS)-2-fluorotetrahydro-1H-pyrrolizin-7a(5H)-yl)methoxy)quinazolin-4-yl)-8-thia-3-azabicyclo[3.2.1]octane 8-oxide] | > 2500
O=C1CCc2cc(O)cc(-c3ccc4c(N5C[C@H]6CC[C@@H](C5)N6)nc(OC[C@@]56CCCN5C[C@H](F)C6)nc4c3F)c21 [Example 297, 7-(4-((1R,5S)-3,8-diazabicyclo[3.2.1]octan-3-yl)-8-fluoro-2-(((2R,7aS)-2-fluorotetrahydro-1H-pyrrolizin-7a(5H)-yl)methoxy)quinazolin-7-yl)-5-hydroxy-2,3-dihydro-1H-inden-1-one] | > 2500
CCC1CCc2cc(O)cc(-c3cc4nc(OC[C@@]56CCCN5C[C@H](F)C6)nc(N5C[C@H]6CC[C@@H](C5)N6)c4c4occc34)c21 (stereo partly drawn) [Example 386, 7-(9-((1R,5S)-3,8-diazabicyclo[3.2.1]octan-3-yl)-7-(((2R,7aS)-2-fluorotetrahydro-1H-pyrrolizin-7a(5H)-yl)methoxy)furo[2,3-f]quinazolin-4-yl)-1-ethyl-2,3-dihydro-1H-inden-5-ol] | 508
C#Cc1c(F)ccc2cc(O)cc(-c3ncc4c(N5CC6CCNC6C5)nc(OC[C@@]56CCCN5C[C@H](F)C6)nc4c3F)c12 (stereo partly drawn) [Example 54, 5-ethynyl-6-fluoro-4-(8-fluoro-2-(((2R,7aS)-2-fluorotetrahydro-1H-pyrrolizin-7a(5H)-yl)methoxy)-4-(hexahydropyrrolo[3,4-b]pyrrol-5(1H)-yl)pyrido [4,3-d]pyrimidin-7-yl) naphthalen-2-ol] | > 2500
CC1CCc2cc(O)cc(-c3cc4nc(OC[C@@]56CCCN5C[C@H](F)C6)nc(N5C[C@H]6CC[C@@H](C5)N6)c4c4occc34)c21 (stereo partly drawn) [Example 385, 7-(9-((1R,5S)-3,8-diazabicyclo[3.2.1]octan-3-yl)-7-(((2R,7aS)-2-fluorotetrahydro-1H-pyrrolizin-7a(5H)-yl)methoxy)furo[2,3-f]quinazolin-4-yl)-1-methyl-2,3-dihydro-1H-inden-5-ol] | 459
C#Cc1cccc2cc(O)cc(-c3ccc4c(N5C[C@H]6CC[C@@H](C5)O6)nc(OC[C@@]56CCCN5C[C@H](F)C6)nc4c3F)c12 [Example 157, 4-(4-((1R,5S)-8-oxa-3-azabicyclo[3.2.1]octan-3-yl)-8-fluoro-2-(((2R,7aS)-2-fluorotetrahydro-1H-pyrrolizin-7a(5H)-yl)methoxy)quinazolin-7-yl)-5-ethynylnaphthalen-2-ol] | 330
Oc1cc2c(c(-c3ncc4c(N5C[C@H]6CC[C@@H](C5)N6)nc(OC[C@@]56CCCN5C[C@H](F)C6)nc4c3F)c1)C(CCF)CC2 (stereo partly drawn) [Example 259, 7-(4-((1R,5S)-3,8-diazabicyclo[3.2.1]octan-3-yl)-8-fluoro-2-(((2R,7aS)-2-fluorotetrahydro-1H-pyrrolizin-7a(5H)-yl)methoxy)pyrido[4,3-d]pyrimidin-7-yl)-1-(2-fluoroethyl)-2,3-dihydro-1H-inden-5-ol] | 2630
